Tests used:
K-Ras G12D = K-Ras G12D (Homo sapiens, UniProt P01116, G12D); assay: Intact protein mass spectrometry, covalent modification; type: binding; details: extended incubation at pH 7.5; 50 μM, 16 h
Protocol: (§1) Purified K-Ras variants (4 μM final) were incubated with compounds at 50 or 100 μM (1% v/v DMSO final) in 20 mM HEPES pH 7.5, 150 mM NaCl, 1 mM MgCl2 in a total volume of 150 μL. After the noted time, the samples were analyzed by intact protein LC/MS using a Waters Xevo G2-XS system equipped with an Acquity UPLC BEH C4 1.7 μm column. The mobile phase was a linear gradient of 5-95% acetonitrile/water+0.05% formic acid. The spectra were processed using QuantLynx, giving the ion counts observed for the most abundant species. For assays conducted under an alternate pH, the HEPES buffer was replaced with one of the following buffers (maintaining 150 mM NaCl and 1 mM MgCl2): 20 mM MES pH 6 or 20 mM Tris pH 9.

K-Ras Q61L = K-Ras Q61L (Homo sapiens, UniProt P01116, Q61L); assay: as above; type: binding; details: extended incubation at pH 7.5; 50 μM, 16 h
Protocol: as §1

K-Ras Q61R = K-Ras Q61R (Homo sapiens, UniProt P01116, Q61R); assay: as above; type: binding; details: extended incubation at pH 7.5; 50 μM, 16 h
Protocol: as §1

wildtype (WT) K-Ras·GDP = molecular target: T1, wildtype (WT) K-Ras·GDP (Homo sapiens, UniProt P01116); assay: as above; type: binding; details: extended incubation at pH 7.5; 50 μM
T1 construct: human K-Ras (wildtype, aa 1-169); 6xHis tag + TEV cleavage site (N, cleaved yes); made in house; host or cells: E. coli BL21(DE3)
Protocol: as §1

K-Ras(G12R) = K-Ras(G12R) (Homo sapiens, UniProt P01116, G12R); assay: Sos- or EDTA-mediated nucleotide exchange assay; type: biochemical; parameters: human K-Ras (G12R, aa 1-169); 6xHis tag + TEV cleavage site (N, cleaved yes); made in house; host or cells: E. coli BL21(DE3); details: BODIPY-GDP exchanged for unlabeled GDP; compound-bound K-Ras(G12R)
Protocol: This assay was performed as previously reported (38-41) with slight modifications. BODIPY-GDP-loaded K-Ras proteins were prepared freshly as follows. To a 10 μM solution of K-Ras(G12R)·GDP or K-Ras(G12R)·GDP·3 in SEC Buffer (1 mL) was added sequentially BODIPY-GDP (5 mM, 40 μL, Thermo Fisher, final concentration 200 μM) and Na-EDTA pH 8.0 (0.5 M, 5 μL, final concentration 2.5 mM). The mixture was incubated at 23° C. for 1 h, and a solution of MgCl2 (1.0 M, 20 μL, […]) was added to the reaction mixture. The protein solution was run through a PD-10 column to remove the excess nucleotide following the manufacturer's protocol. Briefly, sample (˜1.0 mL) and excess buffer (1.5 mL) were loaded onto the column (equilibrated with NucEx Buffer), and desalted protein was eluted with NucEx Buffer (3.5 mL). Desalted protein was diluted 1:1 to a concentration of roughly 1.5 μM in NucEx Buffer. 12 μL of this solution (triplicate for each condition) was added to wells of a black 384-well low-volume assay plate (Corning 4514). […] The plate was immediately placed in a TECAN Spark 20M plate reader, and fluorescence for BODIPY (excitation 488 nm, emission 520 nm) was read every 30 s over 1 h. Fluorescence intensity was normalized to values at time 0 and plotted again time. […]

Compound: CC(=O)C(O)(O)C(=O)N1[C@@H]2CC[C@H]1CN(c1nc(OCC34CCCN3CCC4)nc3c(F)c(-c4cccc5cccc(Cl)c45)ncc13)C2 [compound 3, 1-((1R,5S)-3-(7-(8-chloronaphthalen-1-yl)-8-fluoro-2-((tetrahydro-1H-pyrrolizin-7a(5H)-yl)methoxy)pyrido[4,3-d]pyrimidin-4-yl)-3,8-diazabicyclo[3.2.1]octan-8-yl)-2,2-dihydroxybutane-1,3-dione]
- covalent modification of K-Ras G12D (K-Ras G12D): did not modify
- covalent modification of K-Ras Q61L (K-Ras Q61L): did not modify
- covalent modification of K-Ras Q61R (K-Ras Q61R): did not modify
- covalent modification of wildtype K-Ras·GDP (wildtype (WT) K-Ras·GDP): did not modify
- Sos-mediated nucleotide exchange (K-Ras(G12R)): inhibited
- rate of EDTA-mediated nucleotide exchange (K-Ras(G12R)): significantly reduced
